Assay results as given in patent US11084829B2, “Ubiquitin-specific-processing protease 7 (USP7) modulators and uses thereof” (RAPT THERAPEUTICS, INC., priority 2018, dated 2021).

Legend:
Type in all cases: cell-based
M07e = test: Cell viability (CellTiter-Glo), M07e; conditions: M-07e, AML, p53 wild-type
Protocol: (§1) CHP-134 was purchased from Sigma Aldrich, MOLM-13 was purchased from AddexBio, and NB-1 was purchased from Sekisui XenoTech. All other cell lines were purchased from American Type Culture Collection. For all cell lines, identity was confirmed by short tandem repeat profiling and culturing was performed in recommended growth medium. For studies evaluating cellular effects of compound treatment, 250 to 2,000 cells in 40 μl of recommended medium were seeded per well in 384-well plates (Corning 3764). DMSO-solubilized compounds were added in duplicate in a two-fold dilution series using a D300e Digital Dispenser (Hewlett-Packard). Following a 5-day incubation, cell viability was measured using CellTiter-Glo (Promega) following the manufacturer's instructions. Luminescence was measured using a CLARIOstar plate reader (BMG LABTECH) and normalized to that of DMSO-treated cells. IC50 values were determined by non-linear regression using a 4-parameter fit in Prism (GraphPad Software). Inhibitor profiling of the 430-cell line panel was conducted and analyzed similarly.
(§2) USP7 inhibition by the compounds of Examples 31 and 124 reduced the viability of several p53-wild type blood cancer cell lines, including M07e, OCI-AML5 and MOLM13, in vitro as shown in the following Table 3. Idasanutlin was used as a positive control, and as expected these cell lines were also sensitive to this compound.

OCI-AML5 = test: Cell viability (CellTiter-Glo), OCI-AML5; conditions: Homo sapiens, OCI-AML-5, p53 wild-type
Protocol: as §1, §2

MOLM13 = test: Cell viability (CellTiter-Glo), MOLM13; conditions: Homo sapiens, MOLM-13; MOLM13, AML, p53 wild-type
Protocol: as §1, §2

EOL-1 = test: Cell viability (CellTiter-Glo), EOL-1; conditions: Homo sapiens, EOL1; EOL-1, AML, p53 wild-type
Protocol: as §1, §2

MOLP8 = test: Cell viability (CellTiter-Glo), MOLP8; conditions: Homo sapiens, MOLP-8; MOLP8, MM, p53 wild-type
Protocol: as §1, §2

NCI-H929 = test: Cell viability (CellTiter-Glo), NCI-H929; conditions: Homo sapiens; NCI-H929, MM, p53 wild-type
Protocol: as §1, §2

MM.1S = test: Cell viability (CellTiter-Glo), MM.1S; conditions: Homo sapiens, MM1.S, p53 wild-type
Protocol: as §1, §2

SH-SY5Y = test: Cell viability (CellTiter-Glo), SH-SY5Y; conditions: Homo sapiens, neuroblastoma, MYC amplified, p53 wild-type
Protocol: as §1
(§3) USP7 has been reported to stabilize MYCN (also referred to as MYCN proto-oncogene, a gene that is a member of the MYC family which is over-expressed in a variety of tumors). Since MYCN amplification is an established driver mutation in neuroblastoma, the effect of USP7 inhibition on a panel of p53 wild-type, MYCN- or MYC-amplified neuroblastoma cell lines was tested. The USP7 inhibitors of Examples 31 and 124 reduced viability of all three MYCN-amplified and two MYC-amplified neuroblastoma cell lines tested as shown in Table 4. Idasanutlin was used as a positive control, and as expected these cell lines were also sensitive to this compound.

SK-N-SH = test: Cell viability (CellTiter-Glo), SK-N-SH; conditions: Homo sapiens, neuroblastoma, MYC amplified, p53 wild-type
Protocol: as §1
(§4) USP7 has been reported to stabilize MYCN (also referred to as MYCN proto-oncogene, a gene that is a member of the MYC family which is over-expressed in a variety of tumors). […]

IMR-32 = test: Cell viability (CellTiter-Glo), IMR-32; conditions: Homo sapiens; IMR-32, neuroblastoma, MYCN amplified, p53 wild-type
Protocol: as §1, §4

CHP-134 = test: Cell viability (CellTiter-Glo), CHP-134; conditions: Homo sapiens; CHP-134, neuroblastoma, MYCN amplified, p53 wild-type
Protocol: as §1, §3

NB-1 = test: Cell viability (CellTiter-Glo), NB-1; conditions: Homo sapiens, NB1; NB-1, neuroblastoma, MYCN amplified, p53 wild-type
Protocol: as §1, §3

H526 = test: Cell viability (CellTiter-Glo), H526
Protocol: as §1
(§5) In addition to the many p53 wild-type cell lines in the cell line panel that were sensitive to USP7 inhibition, a subset of p53 mutant cell lines that were inhibited by our USP7 inhibitors were identified and are shown in Table 5.
The effect of pharmacological inhibition of USP7 on the viability of the p53 mutant small cell lung cancer cell line, H526 was further evaluated. […] In contrast, idasanutlin, whose inhibitory effect is dependent on a functional p53 pathway, had no effect.

EBC-1 = test: Cell viability (CellTiter-Glo), EBC-1; conditions: Homo sapiens; EBC-1, lung, squamous cell carcinoma, p53-mutant
Protocol: as §1, §5

NCI-H820 = test: Cell viability (CellTiter-Glo), NCI-H820; conditions: NCI-H820, lung, papillary adenocarcinoma, p53-mutant
Protocol: as §1, §5

NCI-H2009 = test: Cell viability (CellTiter-Glo), NCI-H2009; conditions: Homo sapiens; NCI-H2009, lung, adenocarcinoma, p53-mutant
Protocol: as §1, §5

HUH-7 = test: Cell viability (CellTiter-Glo), HUH-7; conditions: Homo sapiens; HUH-7, hepatocellular carcinoma, p53-mutant
Protocol: as §1, §5

MHCC97-H = test: Cell viability (CellTiter-Glo), MHCC97-H; conditions: Homo sapiens, MHCC97H, hepatocellular carcinoma, p53-mutant
Protocol: as §1, §5

NCI-N87 = test: Cell viability (CellTiter-Glo), NCI-N87; conditions: Homo sapiens; NCI-N87, gastric, p53-mutant
Protocol: as §1, §5

JJN-3 = test: Cell viability (CellTiter-Glo), JJN-3; conditions: Homo sapiens; JJN-3, multiple myeloma, p53-mutant
Protocol: as §1, §5

HCC1806 = test: Cell viability (CellTiter-Glo), HCC1806; conditions: Homo sapiens; HCC1806, breast, triple-negative, p53-mutant
Protocol: as §1, §5

HCC1937 = test: Cell viability (CellTiter-Glo), HCC1937; conditions: Homo sapiens; HCC1937, breast, triple-negative, BRCA1 mutant, p53-mutant
Protocol: as §1, §5

LA-N-2 = test: Cell viability (CellTiter-Glo), LA-N-2; conditions: LA-N-2, neuroblastoma, MYCN-amplified, p53-mutant
Protocol: as §1, §5

SK-N-DZ = test: Cell viability (CellTiter-Glo), SK-N-DZ; conditions: Homo sapiens, neuroblastoma, MYCN-amplified, p53-mutant
Protocol: as §1, §5

Compound COc1cc(C(=O)O)ccc1NC(=O)[C@@H]1N[C@@H](CC(C)(C)C)[C@](C#N)(c2ccc(Cl)cc2F)[C@H]1c1cccc(Cl)c1F [Idasanutlin, reference compound] has a CC50 (M07e) of 0.03 µM, a CC50 (OCI-AML5) of 0.04 µM and a CC50 (MOLM13) of 0.02 µM. The CC50 (EOL-1) was 0.05 µM, the CC50 (MOLP8) was 0.3 µM and the CC50 (NCI-H929) was 0.2 µM. It also gave a CC50 (MM.1S) of 0.02 µM, a CC50 (SH-SY5Y) of 0.1 to 0.5 µM and a CC50 (SK-N-SH) of 0.2 µM. It also gave a CC50 (IMR-32) of 0.24 µM, a CC50 (CHP-134) of 0.01 µM and a CC50 (NB-1) of 0.1 µM. The “effect on viability of H526” value (H526; H526, p53 mutant small cell lung cancer, in vitro) was “had no effect”, the CC50 (H526; Homo sapiens, NCI-H526, H526, lung, small cell, p53-mutant, read-out: CC50) was 6.5 µM and the CC50 (EBC-1) was 16.2 µM. The CC50 (NCI-H820) was 9.7 µM, the CC50 (NCI-H2009) was > 25 µM and the CC50 (HUH-7) was > 25 µM. For the same compound, the CC50 (MHCC97-H) was > 25 µM, the CC50 (NCI-N87) was 8.6 µM and the CC50 (JJN-3) was > 25 µM. It also gave a CC50 (HCC1806) of 7.5 µM, a CC50 (HCC1937) of 7.1 µM and a CC50 (LA-N-2) of 5.3 µM. For the same compound, the CC50 (SK-N-DZ) was > 12.5 µM.
